Where no end group is shown, it is not given here.
Tests used:
B. subtilis KCTC1021 = assay: Killing kinetic assay; assay type: cell-based, Bacillus subtilis; conditions: 10^6 CFU/mL, 37 °C, triplicate averaged
Description: To determine the killing activities of ofLBP-derived analogs, kinetic studies were performed using B. subtilis KCTC1021 and E. coli ML35p at 1× MEC and 5× MEC concentrations. Overnight culture of B. subtilis KCTC1021 and E. coli ML35p were diluted in TBS to a cell density of 10^6 CFU/mL and 1 mL of each suspension was exposed to each ofLBP-derived analog and incubated at 37 °C overnight. The resulting colonies were counted. Percent killing was calculated as the proportion of live bacteria at a given time point following the addition of peptide compared to the number of bacteria present prior to the addition of peptide. Control cultures of each bacterium were incubated without any peptide and assayed at time points corresponding to the test culture assays to ensure no spontaneous loss of viability. Killing kinetic assays were also performed in triplicate, and the results were averaged.

[1] = Calcein leakage assay, neutral liposomes; conditions: DOPC LUVs 95 µM, 20 mM TES pH 7.4, 25 °C, 3 min, peptide 20 μM
Description: (§1) For leakage experiments, large unilamellar vesicles (LUVs) (DOPC or DOPC-DOPG, 3:1) with encapsulated calcein were prepared using the extrusion method. The desired mixtures of phospholipids were dried in glass tubes under nitrogen and then lyophilized overnight to obtain lipid films. The dry lipid films were suspended in leakage buffer (20 mM TES buffer containing 150 mM NaCl, pH 7.4) and 70 mM calcein, and then vortexed occasionally to disperse the lipids. The suspension was freeze–thawed in liquid nitrogen for 10 cycles and extruded 10 times through 0.1-μm polycarbonate membrane filters in an Avanti mini extruder apparatus (Avanti Polar Lipids, Inc., Alabaster, AL, USA). […]
(§2) Leakage of calcein from liposomes was determined as described by Park et al.. […] The increase in the fluorescence of calcein when leaking out of liposomes was monitored at an emission wavelength of 520 nm and an excitation wavelength at 490 nm. The change in fluorescence intensity was measured for 3 min after peptide addition. […] The percentage of dye release was calculated as follows: Dye leakage (%) = 100 × (F − F0)/(Ft − F0) Where F is the fluorescence intensity caused by the peptide and F0 and Ft are those with buffer alone and with 10% Triton X-100, respectively.

[2] = Calcein leakage assay, acidic liposomes; conditions: DOPC/DOPG (3:1) LUVs 95 µM, 20 mM TES pH 7.4, 25 °C, 3 min, peptide 20 μM
Description: as §1, §2

Substance | Time to kill B. subtilis KCTC1021 at 1× MEC (B. subtilis KCTC1021) [min] | Time to kill B. subtilis KCTC1021 at 5× MEC (B. subtilis KCTC1021) [min] | Leakage of entrapped calcein from neutral liposomes at 20 μM [1] | Leakage of entrapped calcein from acidic liposomes at 20 μM [2]
MKLVKTWLKVLK-NH2 [ofLBP 6A] | ≤ 40 | ≤ 10 |  | 
Piscidin 1 [reference compound] | ≤ 40 | ≤ 10 | complete leakage | complete leakage

From paper PMC4210897, “Antimicrobial Activity of Peptides Derived from Olive Flounder Lipopolysaccharide Binding Protein/Bactericidal Permeability-Increasing Protein (LBP/BPI)” (Marine Drugs, 2014)
